“And” between values parts separate entries of the source, which are not always exact repeats. Equal values may be shown once.
Columns and labels:
[1] = biological target: T1, human erythrocyte acetylcholinesterase (AChE) (Homo sapiens, UniProt P22303); assay: biochemical; format: biochemical
T1 construct: 400-fold diluted solution of haemolysed erythrocytes or 200-fold diluted plasma; from tissue; host or cells: haemolysed erythrocytes from blood of healthy human donors
Experimental: (§1) Blood samples were obtained from healthy donors of Blood Donation Centre in Lodz and The Voievodal Specialised Hospital in Lodz. The preparation of erythrocytes for AChE activity measurements and plasma for the assessment of BuChE activity has been described previously.
(§2) The biological sample, consisting of a 400-fold diluted solution of haemolysed erythrocytes or 200-fold diluted plasma was incubated for 15 min (37 °C) with DTNB; the tested compound was then added in a volume of 10 µL. The enzymatic reaction was initiated by addition of a reaction substrate (ATC or BTC).

[2] = biological target: human plasma butyrylcholinesterase (BuChE) (Homo sapiens, UniProt P06276); assay: biochemical
Experimental: as §1, §2

BuChE in human plasma = BuChE in human plasma (Homo sapiens, UniProt P06276)
Experimental: Due to the high level of variation in the individual concentration and activity of BuChE in human plasma, 32 biological samples were studied.
The kinetic parameters of enzymatic reactions were estimated using linear regression (Hanes-Woolf plots). The following parameters were calculated: the maximal velocity (Vmax) and the Michaelis constant (Km).
The kinetic parameters of BuChE reactions were obtained in a series of experiments using decreasing concentrations of BTC. The curves were analysed using the Hanes-Woolf equation, in which the ratio of the initial substrate concentration [S] to the reaction velocity v is plotted against [S].

T1 sequence (P22303 other isoform, or with tags, fused parts or gaps): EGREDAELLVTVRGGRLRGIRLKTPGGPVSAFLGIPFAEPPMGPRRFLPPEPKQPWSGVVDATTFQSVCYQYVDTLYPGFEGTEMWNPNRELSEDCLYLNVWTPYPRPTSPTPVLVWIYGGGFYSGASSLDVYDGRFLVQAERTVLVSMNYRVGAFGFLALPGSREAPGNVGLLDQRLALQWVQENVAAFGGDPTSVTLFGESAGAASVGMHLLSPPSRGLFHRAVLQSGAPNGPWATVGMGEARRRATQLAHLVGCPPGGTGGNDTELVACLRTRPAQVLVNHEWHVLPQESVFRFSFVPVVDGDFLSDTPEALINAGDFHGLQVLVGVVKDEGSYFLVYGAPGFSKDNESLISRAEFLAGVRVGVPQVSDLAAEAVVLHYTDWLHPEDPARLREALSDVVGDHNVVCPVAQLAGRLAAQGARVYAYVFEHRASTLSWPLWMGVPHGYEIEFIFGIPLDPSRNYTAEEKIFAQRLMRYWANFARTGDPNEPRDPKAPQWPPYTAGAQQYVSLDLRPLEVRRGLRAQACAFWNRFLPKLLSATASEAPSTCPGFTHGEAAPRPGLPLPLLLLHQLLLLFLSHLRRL
Sequence of BuChE in human plasma (P06276 29-602): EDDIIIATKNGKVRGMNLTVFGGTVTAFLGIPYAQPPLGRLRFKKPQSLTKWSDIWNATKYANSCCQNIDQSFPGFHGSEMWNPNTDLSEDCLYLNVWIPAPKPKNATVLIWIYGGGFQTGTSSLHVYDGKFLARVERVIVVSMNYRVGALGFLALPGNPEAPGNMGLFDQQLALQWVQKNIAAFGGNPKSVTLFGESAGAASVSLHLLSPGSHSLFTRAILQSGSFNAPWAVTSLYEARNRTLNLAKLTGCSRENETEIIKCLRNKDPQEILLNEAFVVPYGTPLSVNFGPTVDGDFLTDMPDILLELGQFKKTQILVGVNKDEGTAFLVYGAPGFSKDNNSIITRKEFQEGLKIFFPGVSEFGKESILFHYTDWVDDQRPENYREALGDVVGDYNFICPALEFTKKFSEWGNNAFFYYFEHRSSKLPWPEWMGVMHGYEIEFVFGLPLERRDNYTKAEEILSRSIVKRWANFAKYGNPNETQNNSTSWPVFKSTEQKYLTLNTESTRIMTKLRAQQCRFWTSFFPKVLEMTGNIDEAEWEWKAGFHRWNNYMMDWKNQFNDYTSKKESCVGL
Sequence of human plasma butyrylcholinesterase (BuChE) (P06276 29-602): as above

Compound | maximal inhibition of AChE ([1]; concentration range 0.01−100 µmol/L, vs control (100% of activity), listed as compound 2) | IC50 [1] [µM] | inhibition at 100 µM ([1]; read-out: maximal inhibitory effect against AChE) [%] | IC50 [2] [µM] | type of BuChE inhibition (BuChE in human plasma; from Km and Vmax with and without inhibitor at IC50 concentration) | Vmax(i) (Vmax of the reactions with inhibitor) (BuChE in human plasma; inhibitor at IC50 concentration, substrate BTC, mean ± SD) [A/min]
Cc1ncc(C)n2nc(-c3ccn4cc(-c5ccccc5)nc4n3)nc12 [CPL500036-02] | 34.87 ± 1.65% and ~34.87% |  |  |  |  | 
OCCOCCN1CCN(C2=Nc3ccccc3Sc3ccccc32)CC1 [Quetiapine] |  | > 100 | 8.82 ± 1.68 | 6.08 ± 1.64 | mixed inhibition | 0.137 ± 0.036

Source: publication PMC7534323 (Journal of Enzyme Inhibition and Medicinal Chemistry, 2020)
